Where two headings read alike, the source gives them in different places.

Series [1] is described as follows: Human liver microsome stability test. The series is classed as in vitro ADME. The method, then:
The human liver microsome stability test was performed by incubating the compound and human liver microsomes in vitro. First, the compound to be tested was prepared into a 10 mM stock solution in DMSO solvent, and then the compound was diluted to 0.5 mM with acetonitrile. Human liver microsomes (Corning) were diluted with PBS into a microsome/buffer solution, and the solution was used to dilute 0.5 mM compound into a working solution, in which the concentration of the compound was 1.5 µM, and the concentration of human liver microsomes was 0.75 mg/mL. A deep-well plate was taken, 30 µL of the working solution was added per well, and then 15 µL of pre-heated 6 mM NADPH solution was added thereto to initiate a reaction, and the reaction was incubated at 37°C. At 0, 5, 15, 30 and 45 min of the incubation, 135 µL of acetonitrile was added to the corresponding wells to terminate the reaction. After the reaction was terminated with acetonitrile at the last time point of 45 min, the deep-well plate was vortexed and shaken for 10 min (600 rpm), and then centrifuged for 15 min. After centrifugation, the supernatant was collected, and added with purified water in a ratio of 1:1 to perform LC-MS/MS detection. A ratio of a peak area of compound to a peak area of internal standard at each time point was obtained, and the peak area ratios of the compound at 5, 15, 30 and 45 min were compared with the peak area ratio at 0 min to calculate the remaining percentage of the compound at each time point. T1/2 was calculated by using GraphPad 5 software. Table 45: Results of human liver microsome stability test
(Liver microsomes are vesicles of endoplasmic reticulum, rich in cytochrome P450 enzymes.)

Series [2] relates to Human cutaneous squamous cell carcinoma cell A-431. As to the kind of experiment: Cell proliferation inhibition test, A-431. Format: cell-based. Particulars: A-431, 96 h, 4 days incubation. On the procedure:
(§1) Human cutaneous squamous cell carcinoma cell A-431 (ATCC, CRL-1555) and actinic keratosis patient-derived cell HT 297.T (ATCC, CRL-7782) proliferation assays were used to detect the inhibitory effect of small molecular compounds on cell proliferation.
A-431 cells and HT 297.T cells were cultured in DMEM medium containing 10% fetal bovine serum and grown at 37°C in a 5% CO2 incubator. Cells on logarithmic phase were seeded into a 96-well cell culture plate at 1000 cells/well, 100 µL per well, and then cultured overnight at 37°C in a 5% CO2 incubator. The next day, 100 µL of gradient-diluted 2× test compound solution was added to each well, with DMSO serving as a positive control, and 10 µM staurosporine (Aladdin, S102392) was set as a negative control group. After the addition of the compounds, the culture plate was incubated for another 4 days at 37°C in a 5% CO2 incubator. After incubation, the Steady-Glo® luciferase assay system (Promega, G9243) was used according to the supplier's instructions to measure the fluorescence signal value on the Envision 2104 Multilabel Reader. The inhibition rate was calculated by the following formula, then the curve was plotted with the Log value of the inhibitor concentration as the X-axis and the inhibition rate as the Y-axis, and the IC50 was calculated using Graphpad 8.0. [formula] […]

The subject of series [3] is actinic keratosis patient-derived cell HT 297.T. As to the kind of experiment: Cell proliferation inhibition test, HT 297.T. Format: cell-based, Human. On the procedure: as §1
A-431 cells and HT 297.T cells were cultured in DMEM medium containing 10% fetal bovine serum and grown at 37°C in a 5% CO2 incubator. Cells on logarithmic phase were seeded into a 96-well cell culture plate at 1000 cells/well, 100 µL per well, and then cultured overnight at 37°C in a 5% CO2 incubator. The next day, 100 µL of gradient-diluted 2× test compound solution was added to each well, with DMSO serving as a positive control, and 10 µM staurosporine (Aladdin, S102392) was set as a negative control group. After the addition of the compounds, the culture plate was incubated for another 4 days at 37°C in a 5% CO2 incubator. After incubation, the Steady-Glo® luciferase assay system (Promega, G9243) was used according to the supplier's instructions to measure the fluorescence signal value on the Envision 2104 Multilabel Reader. The inhibition rate was calculated by the following formula, then the curve was plotted with the Log value of the inhibitor concentration as the X-axis and the inhibition rate as the Y-axis, and the IC50 was calculated using Graphpad 8.0. [formula] Table 41: Inhibition results of test compounds on proliferation activity of A-431 and HT 297.T cells

Series [4] is described as follows: Pharmacokinetic test in mice. The series is classed as in vivo. On the procedure: For the pharmacokinetic test in mice, 3 male ICR mice, 20 to 25 g, were used, fasted overnight, and administered by tail vein injection (1 mg/kg or 5 mg/kg). Blood was collected before the administration, and at 15 min, 30 min, 1 hour, 2 hours, 4 hours, 8 hours, and 24 hours after the administration. Another 3 mice were taken and administered by oral gavage (5 mg/kg), and blood was collected before the administration, and at 15 min, 30 min, 1 hour, 2 hours, 4 hours, 8 hours, and 24 hours after the administration. Blood samples were centrifuged at 6800 g at 2 to 8°C for 6 min, and plasma was collected and stored at -80°C. The plasma at each time point was taken and added with an acetonitrile solution containing internal standard in 3 to 5 times the amount. The mixture was vortexed and mixed for 1 min, and centrifuged at 13,000 rpm at 4°C for 10 min. The supernatant was collected, added with water in 3 times the amount, and mixed. An appropriate amount of the mixture was taken for LC-MS/MS analysis. The main pharmacokinetic parameters were analyzed using WinNonlin 7.0 software with non-compartmental model. Table 43: Results 1 of pharmacokinetic tests in mice

Series [5] in a line: Thermodynamic solubility test. Format: physicochemical. To be noted: for solubility: thermodynamic from solid, 4 mg/mL, overnight at room temperature. The method, then:
Phosphate buffer saline (PBS) with a pH of 7.4, FeSSIF solution with a pH of 6.5, and FaSSGF solution with a pH of 1.6 were prepared. The compound was accurately weighed and added to prepared phosphate buffer saline with a pH of 7.4, FeSSIF solution with a pH of 6.5, and FaSSGF solution with a pH of 1.6 to prepare into a solution with a concentration of 4 mg/mL. The solution was shaken at a speed of 1000 rpm for 1 hour, and then incubated overnight at room temperature. The incubated solution was centrifuged at 12,000 rpm for 10 minutes to remove undissolved particles, and the supernatant was transferred to a new centrifuge tube. After the supernatant was appropriately diluted, an acetonitrile solution containing internal standard was added, and a standard curve prepared with the same matrix was used for quantification. Table 42: Thermodynamic solubility test results

Setting [6] is: mouse, plasma, male ICR mice, intravenous injection administration (1 mg/kg).
Setting [7] is: mouse, plasma, male ICR mice, oral gavage administration (5 mg/kg).

Broadly, the half-life is the time in which the quantity being followed falls by half. High values mean slow decline, low ones rapid decline. For orientation: IC50 means the concentration needed to halve the response being measured. A low value points to greater potency in that assay. In general, AUC(0-t) refers to the area under the concentration-time curve up to a stated or last time point. The low end stands for low exposure, the high end for high exposure. Broadly, the clearance is the volume of plasma or blood freed of the substance per unit of time. A higher clearance goes with efficient removal. In general, Cmax refers to the peak of the concentration-time curve. In series [1] (human liver microsomes, NADPH, 37°C, 0-45 min), `Cc1cc(OCCN2C[C@H]3COC[C@H]3C2)ccc1-c1ccc(CC(=O)NCc2ccccc2)nc1` [Compound of Formula I, N-benzyl-2-(5-(2-methyl-4-(2-((3aR,6aS)-tetrahydro-1H-furo[3,4-c]pyrrol-5(3H)-yl)ethoxy)phenyl)pyridin-2-yl)acetamide] came in with a half-life at 1 µM of 17.2 min. Besides, the “metabolism by human liver microsomes” value in series [1] (in words) is given as “metabolized quickly”. The IC50 in series [2] was found to be 22.6 nM; in series [3] (Homo sapiens, 96 h, 4 days incubation), 41.3 nM. Also, the “inhibitory effect on HT 297.T cells” value in series [3] (in words, versus control compound) is given as “significantly better than that of the control compound”. Also, the “metabolism in mice in vivo” value in series [4] (in words, compared with the control compound) is listed as “rapid metabolism”. Also, the AUC(0-t) was found to be 430 ng·h/mL in series [4] (setting [6]) and 443 ng·h/mL in series [4] (setting [7]). Also, the clearance in series [4] (setting [6]) is 34.5 mL/min/kg. For the same compound, in series [4] (setting [7]), the peak level (Cmax) was 322 ng/mL. In addition, the solubility in series [5] (FeSSIF solution, FeSSIF (pH 6.5), read-out: Solubility (µg/mL) FeSSIF (pH 6.5)) was 650 µg/mL; in series [5] (phosphate buffer saline (PBS), aqueous buffer, PBS (pH 7.4), read-out: Solubility (µg/mL) PBS (pH 7.4)), 101 µg/mL. For the same compound, the thermodynamic solubility result in series [5] (in words, under neutral conditions, compared with the control compound) is “greater thermodynamic solubility”.

The record behind these values is EP4745130A1, “CRYSTAL FORMS OF TUBULIN-SRC DUAL-TARGETING INHIBITOR, PREPARATION METHOD THEREFOR AND USE THEREOF” (Hubei Bio-Pharmaceutical Industrial Technological Institute …, priority 2023, dated 2025).
